Reference: PubChem BioAssay (NCI)
“And” between values parts separate entries of the source, which are not always exact repeats. Equal entries are not always repeated.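 The compound was tested at five concentrations on cells cultured in 96-well plates, with a 48-hour exposure period. At the GI50, growth is halved. TGI is the concentration that stops growth completely.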

Tests used:
Experiment in all cases: inhibition of tumour cell growth, NCI panel, 48 h
A549 NSCLC = test system: A549 NSCLC
KM12 colon = test system: KM12 colon
SF-268 CNS = test system: SF-268 CNS
BT-549 breast = test system: BT-549 breast
RPMI-8226 leukemia = test system: RPMI-8226 leukemia
SK-MEL-2 melanoma = test system: SK-MEL-2 melanoma
HOP-92 NSCLC = test system: HOP-92 NSCLC
U251 CNS = test system: U251 CNS
PC-3 prostate = test system: PC-3 prostate
COLO 205 colon = test system: COLO 205 colon

Cn1ncnc1C1c2n[nH]c(=O)c3cc(F)cc(c23)NC1c1ccc(F)cc1 (stereo not drawn)
GI50 (A549 NSCLC): 7.9 µM | TGI (A549 NSCLC): > 100 µM | GI50 (KM12 colon): > 100 µM | TGI (KM12 colon): > 100 µM | GI50 (SF-268 CNS): 3.3 µM | TGI (SF-268 CNS): > 100 µM | GI50 (BT-549 breast): > 69.9 µM | TGI (BT-549 breast): > 100 µM | GI50 (RPMI-8226 leukemia): > 100 µM | TGI (RPMI-8226 leukemia): > 100 µM | GI50 (SK-MEL-2 melanoma): > 100000 nM | TGI (SK-MEL-2 melanoma): > 100 µM | GI50 (HOP-92 NSCLC): 39900 nM | TGI (HOP-92 NSCLC): > 100 µM | GI50 (U251 CNS): 2180 nM | TGI (U251 CNS): > 100 µM | GI50 (PC-3 prostate): > 100000 nM | TGI (PC-3 prostate): > 100 µM | GI50 (COLO 205 colon): > 100 µM | TGI (COLO 205 colon): > 100 µM

COc1cc2nncc(SCc3ccc(Cl)c(Cl)c3)c2cc1OC
TGI (A549 NSCLC): > 100 µM | TGI (KM12 colon): > 100 µM | TGI (SF-268 CNS): > 100 µM | TGI (BT-549 breast): > 100 µM | TGI (RPMI-8226 leukemia): > 100 µM | TGI (SK-MEL-2 melanoma): > 100 µM | TGI (HOP-92 NSCLC): > 100 µM | TGI (U251 CNS): > 100 µM | TGI (PC-3 prostate): > 100 µM | TGI (COLO 205 colon): > 100 µM

Nc1cc(-c2ccccc2)n(C(=O)Nc2ccc(Oc3ccccc3)cc2)n1
GI50 (A549 NSCLC): 27.8 µM | TGI (A549 NSCLC): > 100 µM | GI50 (KM12 colon): > 100 µM | TGI (KM12 colon): > 100 µM | GI50 (SF-268 CNS): 30.8 µM | TGI (SF-268 CNS): > 100 µM | GI50 (BT-549 breast): 86.2 µM | TGI (BT-549 breast): > 100 µM | GI50 (RPMI-8226 leukemia): 19.7 µM | TGI (RPMI-8226 leukemia): > 100 µM | GI50 (SK-MEL-2 melanoma): > 100000 nM | TGI (SK-MEL-2 melanoma): > 100 µM | GI50 (HOP-92 NSCLC): 24200 nM | TGI (HOP-92 NSCLC): > 100 µM | GI50 (U251 CNS): 32100 nM | TGI (U251 CNS): > 100 µM | GI50 (PC-3 prostate): > 100000 nM | TGI (PC-3 prostate): > 100 µM | GI50 (COLO 205 colon): > 100 µM | TGI (COLO 205 colon): > 100 µM

COc1cc(-c2oc3c(OC)c(O)cc(O)c3c(=O)c2OC)ccc1O
TGI (A549 NSCLC): > 100 µM | TGI (KM12 colon): > 100 µM | TGI (SF-268 CNS): > 23.3 µM | TGI (BT-549 breast): 59.2 µM | TGI (RPMI-8226 leukemia): 46.3 µM | TGI (SK-MEL-2 melanoma): 15.3 µM | TGI (HOP-92 NSCLC): 15.5 µM | TGI (U251 CNS): > 62.5 µM | TGI (PC-3 prostate): > 74.9 µM | TGI (COLO 205 colon): > 100 µM

COc1cc2c3cc1Oc1c(OC)c(OC)cc4c1C(Cc1ccc(cc1)Oc1cc(ccc1O)CC3N(C)CC2)N(C)CC4 (stereo not drawn)
TGI (A549 NSCLC): 39.6 µM and 25.2 µM | TGI (KM12 colon): 24.8 µM and 26.2 µM | TGI (SF-268 CNS): 44.6 µM and 24.7 µM | TGI (BT-549 breast): 22.8 µM | TGI (RPMI-8226 leukemia): 32.1 µM | TGI (SK-MEL-2 melanoma): 27 µM and 24.8 µM | TGI (HOP-92 NSCLC): 38.7 µM and 41.3 µM | TGI (U251 CNS): 23.8 µM and 30.5 µM | TGI (PC-3 prostate): 28.4 µM | GI50 (COLO 205 colon): 11 µM and 1.52 µM | TGI (COLO 205 colon): 23 µM and 11.3 µM

Clc1ccc(/C=C/c2nc(Cl)c(-c3ccc(Cl)cc3)c(Cl)n2)cc1
TGI (A549 NSCLC): > 100 µM | TGI (KM12 colon): > 100 µM | TGI (SF-268 CNS): > 100 µM | TGI (BT-549 breast): > 100 µM | TGI (RPMI-8226 leukemia): > 100 µM | TGI (SK-MEL-2 melanoma): > 100 µM | TGI (HOP-92 NSCLC): > 100 µM | TGI (U251 CNS): > 100 µM | TGI (PC-3 prostate): > 100 µM | TGI (COLO 205 colon): > 100 µM

Cc1c(C(N)=O)sc2c1c(=O)n(Cc1ccccc1)c1nnc(S(=O)(=O)CC(=O)Nc3ccc(Cl)cc3)n21
GI50 (A549 NSCLC): 2.3 µM | TGI (A549 NSCLC): 6.04 µM | GI50 (KM12 colon): 4.54 µM | TGI (KM12 colon): 16.2 µM | GI50 (SF-268 CNS): 6.8 µM | TGI (SF-268 CNS): 27.4 µM | GI50 (BT-549 breast): 2.92 µM | TGI (BT-549 breast): 14.9 µM | GI50 (RPMI-8226 leukemia): 39.1 µM | TGI (RPMI-8226 leukemia): > 100 µM | GI50 (SK-MEL-2 melanoma): 2830 nM | TGI (SK-MEL-2 melanoma): 7.18 µM | GI50 (HOP-92 NSCLC): 2260 nM | TGI (HOP-92 NSCLC): 6.63 µM | GI50 (U251 CNS): 1990 nM | TGI (U251 CNS): 4.25 µM | GI50 (PC-3 prostate): 2580 nM | TGI (PC-3 prostate): 9.3 µM | GI50 (COLO 205 colon): 10.7 µM | TGI (COLO 205 colon): 27.5 µM

CN(CCCN(C)CCC1CCCCC1)CCC1CCCCC1
GI50 (A549 NSCLC): 9.8 µM | TGI (A549 NSCLC): 24.1 µM | GI50 (KM12 colon): 2.04 µM | TGI (KM12 colon): 4.12 µM | GI50 (SF-268 CNS): 5.14 µM | TGI (SF-268 CNS): 18.9 µM | GI50 (BT-549 breast): 2.64 µM | TGI (BT-549 breast): 11.1 µM | GI50 (RPMI-8226 leukemia): 1.47 µM | TGI (RPMI-8226 leukemia): 5.09 µM | GI50 (SK-MEL-2 melanoma): 2190 nM | TGI (SK-MEL-2 melanoma): 4.84 µM | GI50 (HOP-92 NSCLC): 687 nM | TGI (HOP-92 NSCLC): 5.72 µM | GI50 (U251 CNS): 1970 nM | TGI (U251 CNS): 7.48 µM | GI50 (PC-3 prostate): 2620 nM | TGI (PC-3 prostate): 15.4 µM | GI50 (COLO 205 colon): 1.77 µM | TGI (COLO 205 colon): 3.27 µM

CCN(CC)CCC(=O)O[C@H]1CC[C@H](CC(C)[C@H]2CC(=O)C(C)C=C(C)[C@H](OC(=O)CCN(CC)CC)C(OC)C(=O)[C@@H](C)CC(C)/C=C/C=C/C=C(C)C(OC)CC3CC[C@H](C)[C@](O)(O3)C(=O)C(=O)N3CCCCC3C(=O)O2)CC1OC (stereo partly drawn)
TGI (A549 NSCLC): 7.54 µM and 9.53 µM | TGI (KM12 colon): > 10 µM and 2.03 µM | GI50 (SF-268 CNS): 1.16 µM | TGI (SF-268 CNS): 3.06 µM and 3.99 µM | TGI (BT-549 breast): 0.946 µM | GI50 (RPMI-8226 leukemia): 0.00666 µM | TGI (RPMI-8226 leukemia): 5.24 µM and 2.95 µM | GI50 (SK-MEL-2 melanoma): 359 nM | TGI (SK-MEL-2 melanoma): 1.91 µM | GI50 (HOP-92 NSCLC): 25 nM | TGI (HOP-92 NSCLC): 4.31 µM and 1.62 µM | GI50 (U251 CNS): 1130 nM | TGI (U251 CNS): 2.34 µM and 1.9 µM | GI50 (PC-3 prostate): 1220 nM | TGI (PC-3 prostate): 2.57 µM and 2.4 µM | GI50 (COLO 205 colon): 1.04 µM | TGI (COLO 205 colon): 2.8 µM and 2.49 µM

CN(C)c1ncnc2c1ccn2C1OC(CO)C(O)C1O (stereo not drawn)
GI50 (A549 NSCLC): 13.6 µM | TGI (A549 NSCLC): > 100 µM | GI50 (KM12 colon): 34.9 µM | TGI (KM12 colon): > 100 µM | GI50 (SF-268 CNS): 3.63 µM | TGI (SF-268 CNS): > 100 µM | GI50 (BT-549 breast): 3.98 µM | TGI (BT-549 breast): > 100 µM | GI50 (RPMI-8226 leukemia): 5.88 µM | TGI (RPMI-8226 leukemia): > 71.4 µM | GI50 (SK-MEL-2 melanoma): > 100000 nM | TGI (SK-MEL-2 melanoma): > 100 µM | GI50 (HOP-92 NSCLC): 883 nM | TGI (HOP-92 NSCLC): 5.64 µM | GI50 (U251 CNS): > 100000 nM | TGI (U251 CNS): > 100 µM | GI50 (PC-3 prostate): 477 nM | TGI (PC-3 prostate): 11.5 µM | GI50 (COLO 205 colon): 18.8 µM | TGI (COLO 205 colon): > 100 µM

CC(=O)n1c(-c2ccc(Cl)c(Cl)c2)cn(-c2ccc(Cl)cc2)c1=O
GI50 (A549 NSCLC): 39.3 µM | TGI (A549 NSCLC): > 100 µM | GI50 (KM12 colon): 67 µM | TGI (KM12 colon): > 100 µM | GI50 (SF-268 CNS): 23.5 µM | TGI (SF-268 CNS): > 100 µM | GI50 (BT-549 breast): 17 µM | TGI (BT-549 breast): 36.6 µM | GI50 (RPMI-8226 leukemia): 18.8 µM | TGI (RPMI-8226 leukemia): 67.7 µM | GI50 (SK-MEL-2 melanoma): 22400 nM | TGI (SK-MEL-2 melanoma): 69.2 µM | GI50 (HOP-92 NSCLC): 13900 nM | TGI (HOP-92 NSCLC): 30.2 µM | GI50 (U251 CNS): 16300 nM | TGI (U251 CNS): 37.5 µM | GI50 (PC-3 prostate): 26600 nM | TGI (PC-3 prostate): > 100 µM | GI50 (COLO 205 colon): 53 µM | TGI (COLO 205 colon): > 100 µM
